Assay results taken from patent US9446019B2, “Sparstolonin B based pharmaceutical agent for neuroblastoma treatment” (University of South Carolina, priority 2013, dated 2016).

What was measured:
[1] = tested on: reactive oxygen species in neuroblastoma cells; assay: ROS generation, H2DCFDA staining, fluorescence microscopy; type: cell-based, human; details: SsnB 10 μM; SH-SY5Y and other neuroblastoma lines; p<0.05
Protocol: The production of reactive oxygen species (ROS) in SsnB-treated neuroblastoma cells was detected by a cell-permeable fluorescence probe H2DCFDA (carboxy-2′,7′-dichlorodihydrofluorescein diacetate) according to the manufacturer's instructions (Invitrogen, Carlsbad, Calif.). Briefly, neuroblastoma cells were cultured in DMEM with 10% FBS in Lab-TekII chamber slides (Fisher Scientific, Pittsburg, Pa.) and treated with SsnB for 2 days (SH-SY5Y and IMR-32 cells), 3 days (NGP cell) or 4 days (SKNF-1 and SK-N-BE(2) cells). […] Cells were washed three times with HBSS, mounted with Vectashield mounting medium (Vector Laboratories), and immediately examined under Nikon-E600 fluorescence microscopy equipped with fluorescein isothiocyanate (FITC) filter. Oxidation of H2DCFDA probe occurs almost exclusively in the cytosol, and generates a fluorescence that is proportional to ROS generation in that cell. […] Cells were trypsinized, washed, and re-suspended in PBS and fluorescence intensity was monitored at excitation wavelength 485 nm and emission wavelength 530 nm with a spectramax spectrophotometer (Molecular Devices, Sunnyvale, Calif.).
To test whether SsnB-induced cell death resulted from increased level of ROS, H2DCFDA staining was performed. […] The carboxy-DCF positive cells were quantitated by imageJ software and plotted. […]

SH-SY5Y tumors = type: in vivo
Protocol: Six-week-old female homozygous athymic nude mice (nu/nu; strain-Crl:NU-Foxn1nu) were purchased from Charles River Laboratories (Wilmington, Mass.), and housed in the University of South Carolina Animal Research Facility. All animal experiments were carried out in compliance with the National Institute of Health (NIH) guidelines and were approved by the Institutional Animal Care and Use Committee (IACUC) of the University of South Carolina. The animals were maintained at 25° C. with a 12-h light/12-h dark cycle in laminar flow cabinets under specific pathogen-free conditions and given sterile water and food ad libitum.
A neuroblastoma xenograft mice model using SH-SY5Y cells was used. To develop localized subcutaneous tumors, 2×10^7 SH-SY5Y cells were mixed 1:1 with matrigel (BD biosciences, San Jose, Calif.) to make 0.1 ml total volume, and cells were injected subcutaneously into the flank region of mice using sterile 27-gauge needle. The animal weight and general appearance were recorded regularly throughout the experiments. On every third day, tumor size was measured with calipers and tumor volume was calculated using the ellipsoid formula (length×width×height×0.5).
Tumor-bearing mice were divided into two groups—(i) control without SsnB treatment, n=4; and (ii) experimental with SsnB treatment (10 mg/kg body weight per mice), n=4. […]
Paraformaldehyde-fixed paraffin-embedded tumor sections (5 μm thick) were deparaffinized in xylene and rehydrated with sequential immersion in graded ethanol (100%, 95%, 85%, 70% and 50%). […] Primary antibodies were detected with secondary antibodies conjugated with fluorescein isothiocyanate (FITC) (1:4000 dilution in 5% IgG-free BSA/PBS) for 2 h at room temperature. After washing with 1×PBS for 4 times (10 min for each washing), sections were mounted with antifade Vectashield mounting media (Vector Laboratories, Burlingame, Calif.), and signals were visualized under Nikon-E600 fluorescence microscope (Nikon, Tokyo, Japan). […]

Which “number of carboxy-DCF positive cells vs DMSO” value [1] does the source give for `O=c1occ2c3c(ccc(O)c13)Oc1ccc(O)cc1-2` [SsnB, 8,5′-dihydroxy-4-phenyl-5,2′-oxidoisocoumarin] here?
Its value is “significantly increased”.

And the average tumor volume (SH-SY5Y tumors; 10 mg/kg body weight daily intraperitoneal, 15 days, control 883.75±68.23 mm^3)?
The average tumor volume was 146.5±14.08 mm^3.

And the “cleaved caspase-3 signals in tumors” value (SH-SY5Y tumors; 10 mg/kg, immunohistochemistry, p<0.05 vs control)?
Its value is “significantly detected”.

And the “TUNEL positive cells in tumors” value (SH-SY5Y tumors; 10 mg/kg, p<0.05 vs control)?
Its value is “increased the number of TUNEL positive cells”.
